According to paper PMC8810776, “Gut microbiome of the largest living rodent harbors unprecedented enzymatic systems to degrade plant polysaccharides” (Nature Communications, 2022):
Each block holds one molecule with its values, some of them ahead of it.

Legend:
Assay in all cases: substrate saturation curve, initial velocities
CapGH97 = system: T1, CapGH97; type: biochemical, Bacteroidaceae bacterium MAG57; conditions: pH 7.0, 35 °C, 70 mM McIlvaine buffer, 5 mM CaCl2
T1 construct: recombinant in E. coli BL21, pET28a, N-terminal 6xHis-tag cleaved with trypsin; gene of cluster CC102
From the text: substrate saturation curve, initial velocities on CapGH97

CapGH43_12 = system: T2, CapGH43_12; type: biochemical, Bacteroidaceae bacterium MAG57; conditions: pH 6.5, 35 °C, 70 mM McIlvaine buffer
T2 construct: recombinant in E. coli BL21, pET28a, N-terminal 6xHis-tag cleaved with trypsin; gene of cluster CC102
From the text: substrate saturation curve, initial velocities on CapGH43_12

CapGH173 = system: T3, CapGH173; type: biochemical, Bacteroidales bacterium MAG42; conditions: pH 7.5, 45 °C, 70 mM McIlvaine buffer
T3 construct: recombinant in E. coli BL21, pET28a, N-terminal 6xHis-tag cleaved with trypsin
From the text: substrate saturation curve, initial velocities on CapGH173

[1] = system: O=[N+]([O-])c1ccc(O[C@@H]2O[C@H](CO)[C@H](O)[C@H](O)[C@H]2O)cc1; type: biochemical, Bacteroides xylanisolvens; conditions: pH 7.5, 45 °C
From the text: substrate saturation curve, initial velocities on BXY_26070 (CBK67650)

Km (CapGH97): 7700 ± 610 µM
Molecule: O=[N+]([O-])c1ccc(O[C@H]2O[C@H](CO)[C@H](O)[C@H](O)[C@H]2O)cc1 [pNP-α-D-Gal, p-nitrophenyl-α-D-galactopyranoside]

Km (CapGH43_12): 2740 ± 290 µM
Molecule: O=[N+]([O-])c1ccc(O[C@@H]2O[C@@H](CO)[C@H](O)[C@H]2O)cc1 [pNP-α-L-AraF, p-nitrophenyl-α-L-arabinofuranoside]

Km (CapGH173): 570 ± 50 µM
Molecule: O=[N+]([O-])c1ccc(O[C@@H]2O[C@H](CO)[C@H](O)[C@H](O)[C@H]2O)cc1 [pNP-β-D-Gal, p-nitrophenyl-β-D-galactopyranoside]

Molecule: BXY_26070 (CBK67650) (Bacteroides xylanisolvens XB1A)
Km [1]: 1190 ± 350 µM | kcat [1]: 29.9 ± 1.95 s⁻¹ | kcat/Km [1]: 25100 M⁻¹ s⁻¹
